According to US9796706B2, “Inhibitors of Jun N-terminal kinase” (IMAGO PHARMACEUTICALS, INC., priority 2009, dated 2017):

Tests used:
Format in all cases: biochemical
Conditions in all cases: procedures of Example 14 (TR-FRET)
JNK3 = JNK3 (Homo sapiens (Human), UniProt P53779); test: JNK3 TR-FRET kinase assay (Example 14)
Summary of the method: (§1)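 Two TR-FRET formats were used for each JNK isoform. In the direct one, preactivated aJNK phosphorylated EPIW-1 at about 1 mM final ATP (RT, 15 min). Both were EDTA-quenched and read by HTRF.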

JNK1 = JNK1 (Homo sapiens (Human), UniProt P45983); test: JNK1 TR-FRET kinase assay (Example 14)
JNK1, sequence (P45983 other isoform, or with tags, fused parts or gaps isoform P45983-2, species assumed): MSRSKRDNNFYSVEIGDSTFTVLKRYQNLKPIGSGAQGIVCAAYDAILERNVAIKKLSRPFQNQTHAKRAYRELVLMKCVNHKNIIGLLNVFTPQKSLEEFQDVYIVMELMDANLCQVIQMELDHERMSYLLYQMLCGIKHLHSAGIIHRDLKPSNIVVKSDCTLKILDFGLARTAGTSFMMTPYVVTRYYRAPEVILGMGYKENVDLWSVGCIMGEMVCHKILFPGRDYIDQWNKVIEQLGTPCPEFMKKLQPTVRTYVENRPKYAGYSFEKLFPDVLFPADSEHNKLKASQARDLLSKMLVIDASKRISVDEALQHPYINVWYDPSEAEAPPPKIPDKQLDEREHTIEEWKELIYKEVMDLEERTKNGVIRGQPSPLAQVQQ
Summary of the method: as §1

JNK2 = JNK2 (Homo sapiens (Human), UniProt P45984); test: JNK2 TR-FRET kinase assay (Example 14)
JNK2, sequence (P45984 whole entry, species assumed): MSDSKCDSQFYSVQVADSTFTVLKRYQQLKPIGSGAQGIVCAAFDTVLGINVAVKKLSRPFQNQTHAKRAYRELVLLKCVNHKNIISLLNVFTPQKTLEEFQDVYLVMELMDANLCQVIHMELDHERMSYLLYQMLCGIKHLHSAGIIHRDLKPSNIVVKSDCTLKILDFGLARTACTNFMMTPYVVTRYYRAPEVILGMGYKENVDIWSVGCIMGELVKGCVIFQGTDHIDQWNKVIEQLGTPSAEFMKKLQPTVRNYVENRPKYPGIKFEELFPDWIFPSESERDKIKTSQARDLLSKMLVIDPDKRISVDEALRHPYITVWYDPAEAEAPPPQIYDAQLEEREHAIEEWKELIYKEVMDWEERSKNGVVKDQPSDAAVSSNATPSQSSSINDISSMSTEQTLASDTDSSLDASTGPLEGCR
Summary of the method: as §1

JNK3, sequence (P53779 whole entry, species assumed, canonical isoform): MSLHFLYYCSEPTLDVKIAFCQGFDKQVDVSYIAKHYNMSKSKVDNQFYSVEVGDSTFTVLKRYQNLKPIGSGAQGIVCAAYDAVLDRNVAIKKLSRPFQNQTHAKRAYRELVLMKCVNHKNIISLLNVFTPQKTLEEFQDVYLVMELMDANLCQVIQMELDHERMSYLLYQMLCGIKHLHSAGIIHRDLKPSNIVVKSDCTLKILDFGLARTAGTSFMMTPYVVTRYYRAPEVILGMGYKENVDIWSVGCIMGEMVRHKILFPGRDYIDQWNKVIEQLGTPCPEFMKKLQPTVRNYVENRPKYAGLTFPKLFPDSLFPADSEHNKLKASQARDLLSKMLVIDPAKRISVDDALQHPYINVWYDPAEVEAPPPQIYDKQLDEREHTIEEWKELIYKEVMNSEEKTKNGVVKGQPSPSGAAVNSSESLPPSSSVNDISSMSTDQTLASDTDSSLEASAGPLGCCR

IC50 (JNK3) [nM] | IC50 (JNK1) [nM] | IC50 (JNK2) [nM] | Compound
100 to 10000 | 100 to 10000 | 100 to 10000 | CCc1n[nH]c(-c2sccc2NC(=O)Cc2ccc(OC)cc2)n1 [N-(2-(3-ethyl-1H-1,2,4-triazol-5-yl)thiophen-3-yl)-2-(4-methoxyphenyl)acetamide]
< 100 | < 100 | 100 to 10000 | O=C(Cc1cccc2ncc(C(F)(F)F)cc12)Nc1scc(Br)c1-c1nc[nH]n1 [N-(4-bromo-3-(1H-1,2,4-triazol-3-yl)thiophen-2-yl)-2-(3-(trifluoromethyl)quinolin-5-yl)acetamide]
< 100 | < 100 | < 100 | Cn1cnc(-c2c(Cl)csc2NC(=O)Cn2c(=O)ccc3nc(C(F)(F)F)ccc32)n1 [N-(4-chloro-3-(1-methyl-1H-1,2,4-triazol-3-yl)thiophen-2-yl)-2-(2-oxo-6-(trifluoromethyl)-1,5-naphthyridin-1(2H)-yl)acetamide]
100 to 10000 | 100 to 10000 | 100 to 10000 | Cc1csc(NC(=O)Cc2ccc(OCCn3ccnc3)cc2)c1-c1ncn[nH]1 [2-(4-(2-(1H-imidazol-1-yl)ethoxy)phenyl)-N-(4-methyl-3-(1H-1,2,4-triazol-5-yl)thiophen-2-yl)acetamide]
< 100 | < 100 | < 100 | O=C(Cc1ccc(F)c2cnccc12)Nc1scc(Br)c1-c1ncn[nH]1 [N-(4-bromo-3-(1H-1,2,4-triazol-5-yl)thiophen-2-yl)-2-(8-fluoroisoquinolin-5-yl)acetamide]
< 100 | < 100 | < 100 | N#Cc1csc(NC(=O)CN2C(=O)CCc3ncccc32)c1-c1nc[nH]n1 [N-(4-cyano-3-(1H-1,2,4-triazol-3-yl)thiophen-2-yl)-2-(2-oxo-3,4-dihydro-1,5-naphthyridin-1(2H)-yl)acetamide]
100 to 10000 | 100 to 10000 | 100 to 10000 | Cc1csc(NC(=O)Cc2cccc3nccnc23)c1-c1ncn[nH]1 [N-(4-methyl-3-(1H-1,2,4-triazol-5-yl)thiophen-2-yl)-2-(quinoxalin-5-yl)acetamide]
100 to 10000 | 100 to 10000 | > 10000 | O=C(Cc1cccc2cnccc12)Nc1ccsc1-c1csc(Cl)n1 [N-(2-(2-chlorothiazol-4-yl)thiophen-3-yl)-2-(isoquinolin-5-yl)acetamide]
< 100 | < 100 | 100 to 10000 | O=C(Cc1ccc(F)c2ncccc12)Nc1scc(Br)c1-c1ncn[nH]1 [N-(4-bromo-3-(1H-1,2,4-triazol-5-yl)thiophen-2-yl)-2-(8-fluoroquinolin-5-yl)acetamide]
< 100 | < 100 | < 100 | O=C(Cc1c(F)ccc2ncccc12)Nc1scc(Br)c1-c1ncn[nH]1 [N-(4-bromo-3-(1H-1,2,4-triazol-5-yl)thiophen-2-yl)-2-(6-fluoroquinolin-5-yl)acetamide]
< 100 | < 100 | 100 to 10000 | N#Cc1csc(NC(=O)Cc2cccc3ncccc23)c1-c1cnccn1 [N-(4-cyano-3-(pyrazin-2-yl)thiophen-2-yl)-2-(quinolin-5-yl)acetamide]
< 100 | < 100 | < 100 | Cn1cnc(-c2c(Cl)csc2NC(=O)CN2C(=O)CCc3ncccc32)n1 [N-(4-chloro-3-(1-methyl-1H-1,2,4-triazol-3-yl)thiophen-2-yl)-2-(2-oxo-3,4-dihydro-1,5-naphthyridin-1(2H)-yl)acetamide]
100 to 10000 | 100 to 10000 | 100 to 10000 | O=C(CN1C(=O)CCc2cnccc21)Nc1ccsc1-c1cscn1 [2-(2-oxo-3,4-dihydro-1,6-naphthyridin-1(2H)-yl)-N-(2-(thiazol-4-yl)thiophen-3-yl)acetamide]
< 100 | < 100 | < 100 | N#Cc1csc(NC(=O)Cn2c(=O)ccc3cc(C(F)(F)F)ccc32)c1-c1cscn1 [N-(4-cyano-3-(thiazol-4-yl)thiophen-2-yl)-2-(2-oxo-6-(trifluoromethyl)quinolin-1(2H)-yl)acetamide]
